From patent US12209099B2, “Azetidobenzodiazepine dimers and conjugates comprising them for use in the treatment of cancer” (MEDIMMUNE LIMITED, priority 2019, dated 2025)

Tested on: carcinoma cell line NCI-N87
Experiment: Cytotoxicity assay of warheads (MTS, 7 days)
Type: cell-based
Settings: Homo sapiens, 168 h, NCI-N87, 7 days incubation, mean of three independent replicates
Experimental: The potency of the molecules were measured via in vitro cytotox assays in the carcinoma cell line NCI-N87.
Solid material was dissolved in DMSO to a 2 mM stock solution, from which eight serial dilutions were made at a 1:10 ratio in DMSO and stored at −20° C. until use.
Adherent NCI-N87 cells were washed with D-PBS and detached with Trypsin-EDTA, cell density and viability were then determined in duplicate by Trypan blue exclusion assay using an automated cell counter (LUNA-II™). Cell suspension was diluted to 1×10^5 cells/ml in growth media (RPMI 1640 with Glutamax+10% (v/v) HyClone™ Fetal Bovine Serum) and vortexed before dispensing 2 mL per well into sterile 3 mL polypropylene plates. Warhead dilutions were then dispensed into the appropriate wells at 10 μl/well and mixed by repeat pipetting. For control wells 10 μl of DMSO was dispensed onto 2 mL cell suspension, and thoroughly mixed. 100 μl of each sample was then aliquoted into 2 replicate wells of a sterile flat 96-well microplate and incubated in a 37° C. CO2-gassed (5%) incubator. At the end of the incubation period time (7 days), cell viability was measured by CellTiter 96 Aqueous One (MTS) assay, which was dispensed at 20 μl/well and incubated for 4 hours at 37° C., 5% CO2. Plates were then read on an EnVision Multi-label Plate Reader (Perkin Elmer) using absorbance at 490 nm.
Cell survival percentage was calculated from the mean absorbance of the 2 replicate wells for each sample, compared to the mean absorbance in the two control wells treated with DMSO only (100%). The IC50 was determined by fitting each data set to sigmoidal dose-response curves with a variable slope using the non-linear curve fit algorithm on the GraphPad Prism software (San Diego, CA).
All the experiments in this report were carried out and tested in three independent experiments. Data are reported as the mean of the three independent replicates.

| Structure (SMILES) | IC50 [nM] |
| --- | --- |
| COc1cc2c(cc1OCCCCCOc1cc3c(cc1OC)C(=O)N1CC[C@H]1C=N3)N=C[C@@H]1CCN1C2=O [Ex1, (10aS,10a′S)-7,7′-(pentane-1,5-diylbis(oxy))bis(6-methoxy-1,10a-dihydroazeto[1,2-a]benzo[e][1,4]diazepin-4(2H)-one)] | 2.2 |
| COc1cc2c(cc1OCCCOc1cc3c(cc1OC)C(=O)N1CC[C@H]1C=N3)N=C[C@@H]1CCN1C2=O [Ex2A, (10aS,10a′S)-7,7′-(propane-1,3-diylbis(oxy))bis(6-methoxy-1,10a-dihydroazeto[1,2-a]benzo[e][1,4]diazepin-4(2H)-one)] | 70.1 |
| COc1cc2c(cc1OCc1cccc(COc3cc4c(cc3OC)C(=O)N3CC[C@H]3C=N4)c1)N=C[C@@H]1CCN1C2=O [Ex2B, (10aS,10a′S)-7,7′-((1,3-phenylenebis(methylene))bis(oxy))bis(6-methoxy-1,10a-dihydroazeto[1,2-a]benzo[e][1,4]diazepin-4(2H)-one)] | 4.04 |
